From patent publication USRE34918E, “Azaazulene compounds which are useful as antiallergic and antiinflammatory agents” (Kaken Pharmaceutical Co., Ltd., priority 1988, dated 1995) come the findings set out here.

Values after ≈ are worked out from the molar mass of the structure shown.

Assay [1] relates to PCA (homologous passive cutaneous anaphylaxis) in rat. Kind of assay: Inhibitory activity against PCA in rat. In kind it is in vivo, rat (male Slc: Wistar). As to conditions: 5 mg/kg oral, 1 hour before antigen challenge; for inhibition in vivo at 5 mg/kg: Rattus norvegicus, read-out: Inhibition rate against PCA. The procedure: An anti-dinitrophenylated-ovalbumin (hereinafter referred to as "anti-DNP-OVA") rat antiserum having 800 of PCA titer in homologous passive cutaneous anaphylaxis reaction in rats for 48 hours, was diluted 200 times with physiological saline, and diluted antiserum was injected intradermally into back of groups of 5 male Slc: Wistar rats weighing 130-150 g in a volume of 50 μl/site to be passively sensitized. After 48 hours, 0.6 ml of 1% (w/v) Evans blue solution containing 1.5 mg of antigen DNP-OVA was administered intravenously into the tail. Thirty minutes later, the rats were bled to death and skin of the rats was removed. According to the method of Katayama et al [Microbiol. […] The test compound was suspended in 0.5% (w/v) aqueous solution of carboxymethylcellulose (hereinafter referred to as "CMC"), the suspension was administered orally in a ratio of 5 mg/kg 1 hour before challenging an antigen.
Inhibition rate against PCA was calculated according to the following equation. [formula] M: Amount of leaked pigment in antibody-sensitized site under administration of CMC without the test compound
S: Amount of leaked pigment in antibody-sensitized site under administration of the test compound in CMC
B: Amount of leaked pigment in antibody-nonsensitized site

Assay [2] relates to smooth musculus trachealis. Kind of assay: Relaxant activity of smooth musculus trachealis in guinea pig. As to conditions: Cavia porcellus; tracheal chain strips, 37° C.; read-out: Concentration for 50% relaxation. Further details: species or system guinea pig (male Hartley). The procedure: Male Hartley guinea pigs weighing 350 to 550 g were bleed to death, and immediately the tracheae were extirpated. According to the method of Takagi et al [cf. Chem. Pharm. Bull., 8, 716 (1958)], tracheal chain strips was prepared, and the sample was suspended on Magnus apparatus under addition of load of 0.5 g. The test was carried out at 37° C. of liquid temperature. After position of tonus was examined with histamine (10^-6 g/ml) and isoproterenol (10^-7 g/ml), the test compound dissolved in a mixture of dimethyl sulfoxide and physiological saline was added thereto, and the test compound was investigated with respect to the effect on smooth musculus trachealis. Theophylline was used as a positive comparative drug. The relaxation and the contraction of smooth musculus trachealis were recorded on servocorder (SR 6342: commercially available from Watanabe Instruments Corp.) by connecting Isotonic Transducer (TD-1125: commercially available from Nihon Kohden Kogyo Co., Ltd.) to a balancing box.

Assay [3] deals with histamine release from rat mast cell. In words: Inhibitory activity against histamine release from rat mast cell. Type of assay: cell-based. As to conditions: 10 μg/ml, read-out: Inhibitory rate against histamine release. The procedure: An anti-dinitrophenylated-ovalbumin (anti DNP-OVA) rat antiserum having 800 of PCA titer in homologous passive cutaneous anaphylaxis reaction in rats for 48 hours was diluted double with physiological saline, and 1 ml of diluted antiserum was injected intraperitoneally into rats to be passively sensitized. On the next day, peritoneal exudation cell (hereinafter referred to as "PEC") was collected. The collected PEC was washed with a medium containing 0.1% BSA, and 1.5×10^5 of the PEC were added to each test tube. AFter incubation at 37° C. for 10 minutes, 50 μl of test compound solution in a same medium was added thereto. After 30 seconds, 50 μl of antigen solution (DVA-OVA 100 μg/ml) was further added thereto to give the total amount of 500 μl of the reaction mixture, and histamine release reaction was induced. After 10 minutes, 1 ml of physiological saline with cooled Tris buffered solution containing 1 mM EDTA were added thereto to stop the reaction. After centrifugation, the amount of histamine in supernatant was determined by fluorescence method according to the method of Shore et al [cf. J. Pharmacol. Exp. Ther., 127, 182 (1959)]. Inhibition rate against histamine release was calculated according to the following equation.
Inhibition rate against histamine release [formula] M: Amount of histamine in supernatant under addition of antigen and non-addition of test compound
S: Amount of histamine in supernatant under addition of antigen and test compound
B: Amount of histamine in supernatant under non-addition of antigen and test compound.
The test compound was used in a concentration of 10 μg/ml.

Another assay deals with T1, 5-lipoxygenase (Cavia porcellus, UniProt A0A286X958).
T1 construct: 5-lipoxygenase was prepared with polymorphonuclear leukocyte obtained from peritoneal cavity; endogenous in cells; host or cells: guinea pig peritoneal polymorphonuclear leukocytes (casein-elicited)
T1 sequence (A0A286X958 1-674): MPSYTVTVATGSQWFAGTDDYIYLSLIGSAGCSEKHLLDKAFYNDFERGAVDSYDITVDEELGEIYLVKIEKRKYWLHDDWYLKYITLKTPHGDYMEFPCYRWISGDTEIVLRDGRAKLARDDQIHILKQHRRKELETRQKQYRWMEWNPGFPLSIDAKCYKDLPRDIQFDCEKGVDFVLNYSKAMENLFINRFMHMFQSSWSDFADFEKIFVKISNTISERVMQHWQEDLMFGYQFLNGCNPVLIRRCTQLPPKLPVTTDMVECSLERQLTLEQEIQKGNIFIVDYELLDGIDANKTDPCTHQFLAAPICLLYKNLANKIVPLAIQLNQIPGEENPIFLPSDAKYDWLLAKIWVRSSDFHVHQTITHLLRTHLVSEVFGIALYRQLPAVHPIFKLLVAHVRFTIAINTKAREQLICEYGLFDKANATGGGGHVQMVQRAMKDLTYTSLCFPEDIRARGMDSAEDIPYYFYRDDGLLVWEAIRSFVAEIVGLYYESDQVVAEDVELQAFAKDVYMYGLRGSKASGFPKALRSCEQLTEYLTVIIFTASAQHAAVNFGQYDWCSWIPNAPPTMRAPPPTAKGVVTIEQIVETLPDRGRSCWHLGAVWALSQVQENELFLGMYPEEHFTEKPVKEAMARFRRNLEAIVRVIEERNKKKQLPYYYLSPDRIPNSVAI
Kind of assay: 5-lipoxygenase inhibiting activity in guinea pig. As to conditions: read-out: Inhibition rate against 5-lipoxygenase activity. Type of assay: biochemical. The procedure: The test was carried out according to the method of Ochi [cf. J. Biol. Chem., 258, 5754-5758 (1983)]. Two % casein solution in saline was injected intraperitoneally into guinea pigs in an amount of 1/10 of body weight. After 16 hours, 5-lipoxygenase was prepared with polymorphonuclear leukocyte obtained from peritoneal cavity. Test compound and 5-lipoxygenase were pre-incubated at 30° C. for 10 minutes, CaCl2 (calcium chloride) and ^14 C-arachidonic acid were added thereto, and the resulting mixture was incubated for 20 minutes. A mixture of ethyl acetate/methanol/0.2M citric acid=30/4/1 (by volume) was added thereto to stop the reaction. After centrifugation, the organic solvent layer was spotted on a plate for thin layer chromatography and developed. Effect of the test compound was determined from the amount of ^14 C-5-hydroxyeicosatetraenoic acid (hereinafter referred to as "5-HETE") formed from ^14 C-arachidonic acid. Radioactivity of 5-HETE position was measured with a liquid scintillation counter.
Inhibition rate against 5-lipoxygenase activity was calculated according to the following equation.
Inhibition rate against 5-lipoxygenase activity [formula] A: Value of radioactivity in the control group B: Value of radioactivity in the test compound group
Each test compound was used in a concentration of 10 μM.

For the compound “5(3-Butyloxyallylaminophenyl)-1H-tetrazole [WP-833, reference compound]”, in assay [1], the “Inhibition rate against PCA” value worked out at 42.8 ± 5.1%.

`CC(C)c1cccc2[nH]c(=O)c(-c3nnn[nH]3)c-2c1` [Example 1, 5-Iso-propyl-3-(5-tetrazolyl)-1-azaazulane-2-one]: the EC50 in assay [2] amounted to 47 µg/mL (≈ 184 µM). Besides, the inhibition at 10 µg/mL in assay [3] was 78.6%.

For the compound `CC(C)c1cccc2c(-c3nnn[nH]3)c(=O)[nH]c-2c1` [Example 2, 7-Iso-propyl-3-(5-tetrazolyl)-1-azaazulane-2-one], the EC50 in assay [2] was found to be 25 µg/mL (≈ 97.9 µM). Further, in assay [3], the inhibition at 10 µg/mL came out at 81.4%.

Take `O=c1c(-c2nnn[nH]2)c2cccccc-2n1Cc1ccccc1` [Example 3, 1-Benzyl-3-(5-tetrazolyl)-1-azaazulane-2-one]: the inhibition in vivo at 5 mg/kg in assay [1] was 98.6 ± 3.5%. In addition, at 5-lipoxygenase, the inhibition at 10 µM stood at 63.2%. For the same compound, the inhibition at 10 µg/mL in assay [3] stood at 84.9%.

Turning to `CC(C)c1cccc2n(Cc3ccccc3)c(=O)c(-c3nnn[nH]3)c-2c1` [Example 4, 5-Iso-propyl-1-benzyl-3-(5-tetrazolyl)-1-azaazulane-2-one], the EC50 in assay [2] is 6.6 µg/mL (≈ 19.1 µM). For the same compound, in assay [1], the inhibition in vivo at 5 mg/kg turned out to be 78.2 ± 4.1%. Besides, the inhibition at 10 µM at 5-lipoxygenase is -1.1%. The inhibition at 10 µg/mL in assay [3] stood at 84.4%.

On to `CC(C)c1cccc2n(CCCCCc3ccccc3)c(=O)c(-c3nnn[nH]3)c-2c1` [Example 6, 5-Iso-propyl-1-(5-phenylpentyl)-3-(5-tetrazolyl)-1-azaazulane-2-one], for which the EC50 in assay [2] worked out at 13.1 µg/mL (≈ 32.6 µM). Also, on 5-lipoxygenase, the inhibition at 10 µM was found to be 27%. The inhibition at 10 µg/mL in assay [3] amounted to 6.3%.

Regarding `CC(C)c1cccc2c(-c3nnn[nH]3)c(=O)n(CCCCCc3ccccc3)c-2c1` [Example 7, 7-Iso-propyl-1-(5-phenylpentyl)-3-(5-tetrazolyl)-1-azaazulane-2-one], on 5-lipoxygenase, the inhibition at 10 µM was 60.6%. The inhibition at 10 µg/mL in assay [3] was 10.6%.

For `CC(C)c1cccc2n(Cc3ccccn3)c(=O)c(-c3nnn[nH]3)c-2c1` [Example 13, 5-Iso-propyl-1-(2-pyridylmethyl)-3-(5-tetrazolyl)-1-azaazulane-2-one], the EC50 in assay [2] amounted to 12.4 µg/mL (≈ 35.8 µM). Further, the inhibition at 10 µM on 5-lipoxygenase is -9.4%. Besides, the inhibition at 10 µg/mL in assay [3] amounted to 91.5%.

For the compound `CC(C)c1cccc2c(-c3nnn[nH]3)c(=O)n(C)c-2c1` [Example 16], the EC50 in assay [2] was 43 µg/mL (≈ 160 µM). Also, the inhibition at 10 µg/mL in assay [3] was 88.3%.

For `CCCCn1c2cccccc-2c(-c2nnn[nH]2)c1=O` [Example 17], in assay [1], the inhibition in vivo at 5 mg/kg was -1.9 ± 9.2%. Also, in assay [3], the inhibition at 10 µg/mL worked out at 89.5%.

On to `CCCCn1c2cc(C(C)C)cccc-2c(-c2nnn[nH]2)c1=O` [Example 18], for which, in assay [2], the EC50 was found to be 28 µg/mL (≈ 89.9 µM). The inhibition at 10 µg/mL in assay [3] was determined as 86.9%.

With `CCCCn1c2cccc(C(C)C)cc-2c(-c2nnn[nH]2)c1=O` [Example 19], the EC50 in assay [2] came out at 44 µg/mL (≈ 141 µM). For the same compound, the inhibition at 10 µg/mL in assay [3] came to 83.4%.

In the case of `CC(C)c1cccc2c(-c3nn[nH]n3)c(=O)n(CCCc3ccccc3)c-2c1` [Example 29], the inhibition at 10 µM at 5-lipoxygenase worked out at 17.3%. The inhibition at 10 µg/mL in assay [3] was 99.5%.

Consider `O=c1c(-c2nn[nH]n2)c2cccccc-2n1Cc1ccc(C(F)(F)F)cc1` [Example 35], for which the inhibition at 10 µM at 5-lipoxygenase was determined as 34.9%. The inhibition at 10 µg/mL in assay [3] was 54.1%.

`O=C(O)c1ccc(Cn2c3cccccc-3c(-c3nn[nH]n3)c2=O)cc1` [Example 38]: the inhibition at 10 µM on 5-lipoxygenase amounted to 31.7%. For the same compound, in assay [3], the inhibition at 10 µg/mL was determined as 24.4%.

For `O=c1c(-c2nn[nH]n2)c2cccccc-2n1CCOc1ccccc1` [Example 43], the inhibition at 10 µM on 5-lipoxygenase is -7.2%. In assay [3], the inhibition at 10 µg/mL was 65.3%.

Regarding `O=c1c(-c2nn[nH]n2)c2cccccc-2n1CSc1ccccc1` [Example 44], the inhibition at 10 µM at 5-lipoxygenase was found to be 18.3%. The inhibition at 10 µg/mL in assay [3] was found to be 85%.

As for `O=c1c(-c2nn[nH]n2)c2cccccc-2n1CCc1ccc(O)c(O)c1` [Example 46], the inhibition at 10 µM on 5-lipoxygenase came out at 41.8%. The inhibition at 10 µg/mL in assay [3] was 57.6%.

As to `CC(C)(C)c1cc(C(=O)Cn2c3cccccc-3c(-c3nn[nH]n3)c2=O)cc(C(C)(C)C)c1O` [Example 48], the inhibition at 10 µM on 5-lipoxygenase is -1.1%. Also, the inhibition at 10 µg/mL in assay [3] is 10.4%.

With `CCCc1c(OCCCn2c3cccccc-3c(-c3nn[nH]n3)c2=O)ccc(C(C)=O)c1O` [Example 49], the EC50 in assay [2] came out at 42.3 µg/mL (≈ 94.5 µM). Further, the inhibition at 10 µM on 5-lipoxygenase was -2.6%. The inhibition at 10 µg/mL in assay [3] was determined as 62.8%.

For the compound `CC(C)c1cccc2c(-c3nn[nH]n3)c(=O)n(CCCCc3ccccc3)c-2c1` [Example 51], the inhibition at 10 µM at 5-lipoxygenase was -2.2%. In addition, the inhibition at 10 µg/mL in assay [3] amounted to 63.6%.

In the case of `N#Cc1c2cccccc-2nc1N=[N+]=[N-]` [Example 60, 2-Azido-3-cyano-1-azaazulene], in assay [2], the EC50 turned out to be 52 µg/mL (≈ 266 µM). Besides, in assay [1], the inhibition in vivo at 5 mg/kg was -27 ± 17.7%. For the same compound, in assay [3], the inhibition at 10 µg/mL amounted to 65.3%.

For the compound `N#Cc1c2cccccc-2nc1NCC(=O)O` [Example 62, 3-Cyano-2-carboxymethylamino-1-azaazulene], the inhibition in vivo at 5 mg/kg in assay [1] worked out at 14 ± 4.3%. For the same compound, at 5-lipoxygenase, the inhibition at 10 µM stood at 5.2%. In addition, the inhibition at 10 µg/mL in assay [3] was 82.5%.

Turning to `Cc1ccc2c([nH]c(=O)c3c(=O)cc(C(=O)OCCC(C)C)oc32)c1C` [repirinast, Isopentyl 5,6dihydro-7,8-dimethyl-4,5-dioxo-4Hpyrano[3,2c]quinoline2-carboxylate, reference compound], the inhibition in vivo at 5 mg/kg in assay [1] turned out to be 36.2 ± 5.8%.

For `Cn1c(=O)c2[nH]cnc2n(C)c1=O` [theophylline, reference compound], the EC50 in assay [2] turned out to be 6.8 µg/mL (≈ 37.7 µM).
